Experimental data published in PubChem BioAssay AID540306 (Sanford-Burnham Center for Chemical Genomics, 2011).
Calls of active or inactive are those of the source.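 How the source made its calls: active means mean EC50 of 20 µM or lower; inactive means the rest.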

These compounds were tested against CHO-CHOP luciferase reporter, UPR apoptotic arm activation (assay: CHOP luciferase reporter activation – CHO-CHOP cells, luminescence, counter-screen for UPR adaptive arm activator project, SAR follow-up (AID 540306)).

| SMILES | EC50 |
| --- | --- |
| Cc1nc(Nc2nccc(-c3ccccc3)n2)nc2ccccc12 | inactive |
| Cc1ccnc(Nc2ncccn2)n1 | > 80 µM (inactive) |
| COc1cc(-c2ccccc2)nc(Nc2nc(C)c3ccccc3n2)n1 | > 80 µM (inactive) |
| Cc1nc(Nc2ncccn2)nc2ccccc12 | > 80 µM (inactive) |

Next, values leading:

| EC50 | SMILES |
| --- | --- |
| > 80 µM (inactive) | Cc1nc(Nc2nc(-c3ccccc3)cc(=O)[nH]2)nc2ccccc12 |
| > 80 µM (inactive) | Cc1ccnc(Nc2nc(-c3ccccc3)cc(=O)[nH]2)n1 |
| > 80 µM (inactive) | Cc1cc(-c2ccccc2)nc(Nc2nc(C)c3ccccc3n2)n1 |
| > 80 µM (inactive) | Cc1cc(=O)[nH]c(Nc2nc(C)c3ccccc3n2)n1 |
